Results: patent US7410655B2, “Anticancer agent” (Nobel Limited Liability Company, priority 2001, dated 2008)

System: PA-23 rhabdomyosarcoma
Assay: PA-23 rhabdomyosarcoma lung metastases after inoculation in the caudal vein of rats
Format: in vivo
Conditions: Example 2; 0.003 mg/ml in sodium chloride isotonic solution
Protocol: The preparation anti-tumor action was tested on female white rats.
The PA-23 rhabdomyosarcoma cell suspension was inoculated in the caudal vein of all rats, being generally used as a model for investigating the ability of such preparations to inhibit stroma development, which is characteristic of most malignant tumors.
All the animals were divided into 5 groups. On the following day after the inoculation a physiological solution was intra-abdominal injected into the rats of Group 1 (0.5 ml per animal); 0.1 ml of the preparation—into the rats of Group 2, 0.3 ml of the preparation—into the rats of Group 3; 0.5 ml of the preparation—into the rats of Group 4; and 0.8 ml of the preparation—into the rats of Group 5. Prior to administration the preparation had been diluted with a physiological solution in the ratio of 1 to 10.
Subsequent administration of the preparation […] was carried out every third day. On the 20 th day following the tumoral inoculation the rats were destroyed. Their bodies were dissected, the number of metastases in their lungs calculated and their respective weight determined by means of analytical balance weighing.
As in Example 1, the PA-23 rhabdomyosarcomas were used as a model. Tumoral inoculation was performed in a similar way. The laboratory animals were also divided into groups. The sodium chloride isotonic solution was injected into Group 1 (control), potassium tetrachloroplatinate in the sodium chloride isotonic solution—into Group 2, ammonium lignohumic acid salts in the sodium chloride isotonic solution were injected into Group 3, injections of the proposed preparation diluted with a physiological solution in the ratio of 1 to 10 were given to Group 4.

[Cl][Pt-2]([Cl])([Cl])[Cl].[K+].[K+] [Potassium tetrachloroplatinate solution, potassium tetrachloroplatinate]
Average number of metastases per rat: 33.2 ± 6.2
Average weight of 1 metastasis: 42.9 ± 4.3 mg
Average weight of 1 metastasis, % of the Control Group: 88.5%
Number of metastases: 531
